Test systems include SR leukemia; TK-10 renal; SK-MEL-2 melanoma; PC-3 prostate; UACC-257 melanoma; MDA-MB-231 breast; T-47D breast; A498 renal; NCI-H460 lung; OVCAR-4 ovarian.
Assay in all cases: inhibition of tumour cell growth, NCI panel, 48 h

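Dose response: 5 concentrations. Exposure: 48 h. Format: 96-well plates. Endpoint: linear interpolation; highest concentration if not reached. GI50 = concentration required for 50% inhibition of growth. TGI: concentration producing complete growth inhibition.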

In the case of `Nc1n[nH]c2ccc([C@@H]3Nc4ccc5[nH]ncc5c4[C@H]4C5C=CC(C5)[C@@H]34)cc12` (stereo not given in full), the GI50 was 0.144 µM with SR leukemia; 12 µM in the experiment on TK-10 renal; 4.14 µM in the experiment with SK-MEL-2 melanoma; 0.407 µM with PC-3 prostate; 12.5 µM in the experiment on UACC-257 melanoma; 0.694 µM in the experiment on MDA-MB-231 breast. For the same compound, the GI50 in the experiment on T-47D breast was 10.9 µM; in the experiment with A498 renal, 0.0876 µM; in the experiment with NCI-H460 lung, 0.365 µM; in the experiment on OVCAR-4 ovarian it was 1.76 µM. The TGI was more than 100 µM in the experiment on SR leukemia; more than 100 µM in the experiment with TK-10 renal; 28 µM in the experiment with SK-MEL-2 melanoma; 22.7 µM in the experiment with PC-3 prostate; 58.5 µM in the experiment with UACC-257 melanoma; 12.4 µM with MDA-MB-231 breast. Also, the TGI in the experiment with T-47D breast is 77.1 µM; in the experiment with A498 renal, 0.492 µM; in the experiment with NCI-H460 lung it was 11.4 µM; in the experiment on OVCAR-4 ovarian, more than 90.7 µM.

Take `CC1(C)CC[C@]2(C(=O)N3CCOCC3)CC[C@]3(C)C(=CC[C@@H]4[C@@]5(C)C/C(=C/c6ccncc6)C(=O)C(C)(C)[C@@H]5CC[C@]43C)[C@@H]2C1`: the GI50 in the experiment on SR leukemia was 0.365 µM; with TK-10 renal, 6.46 µM; in the experiment on SK-MEL-2 melanoma, 2.33 µM; in the experiment with PC-3 prostate, 0.375 µM; with UACC-257 melanoma, 3.68 µM; in the experiment with MDA-MB-231 breast, 3.06 µM. Further, the GI50 in the experiment with T-47D breast was 0.781 µM; in the experiment on A498 renal, 1.83 µM; in the experiment on NCI-H460 lung, 1.32 µM; in the experiment with OVCAR-4 ovarian, 2.34 µM. The TGI was more than 100 µM with SR leukemia; more than 100 µM with TK-10 renal; 7.27 µM in the experiment on SK-MEL-2 melanoma; 46.1 µM with PC-3 prostate; more than 100 µM with UACC-257 melanoma; 41.1 µM in the experiment on MDA-MB-231 breast. Moreover, the TGI with T-47D breast is more than 100 µM; in the experiment with A498 renal, 4.96 µM; with NCI-H460 lung, 4.17 µM; with OVCAR-4 ovarian it was more than 100 µM.

Consider `CSc1ccccc1C#Cc1ccccc1C#CCCCCO`, for which the GI50 in the experiment with SR leukemia is 3.54 µM; in the experiment with TK-10 renal it was 13.7 µM; with SK-MEL-2 melanoma, 17.9 µM; with PC-3 prostate it was 16.2 µM; in the experiment with UACC-257 melanoma, 18.5 µM; in the experiment on MDA-MB-231 breast, 2.57 µM. For the same compound, the GI50 in the experiment on T-47D breast is 15 µM; in the experiment on A498 renal, 2.24 µM; in the experiment on NCI-H460 lung, 8.64 µM; in the experiment with OVCAR-4 ovarian it was 17.7 µM. Also, the TGI amounted to 17.5 µM in the experiment with SR leukemia; 30.4 µM with TK-10 renal; 35.4 µM with SK-MEL-2 melanoma; 38 µM in the experiment on PC-3 prostate; 34.2 µM in the experiment with UACC-257 melanoma; 13.2 µM in the experiment on MDA-MB-231 breast. For the same compound, the TGI was found to be 34.5 µM with T-47D breast, 14.3 µM in the experiment on A498 renal, 22.2 µM in the experiment with NCI-H460 lung and 37.3 µM in the experiment on OVCAR-4 ovarian.

For `O=C(CN1CCN(c2ccccc2)CC1)N1CCN(c2nnc(-c3ccc(Cl)cc3)c(-c3ccc(Cl)cc3)n2)CC1`, the GI50 was 1.7 µM with SR leukemia; 5.97 µM with TK-10 renal; 12.4 µM in the experiment on SK-MEL-2 melanoma; 7.44 µM in the experiment on PC-3 prostate; 14.7 µM in the experiment with UACC-257 melanoma; 21.9 µM in the experiment on MDA-MB-231 breast. The GI50 in the experiment on T-47D breast is 3.51 µM; in the experiment with A498 renal, 9.67 µM; in the experiment on NCI-H460 lung it was 7.92 µM; with OVCAR-4 ovarian, 11 µM. Besides, the TGI was 6.62 µM in the experiment on SR leukemia; more than 100 µM with TK-10 renal; 42.2 µM in the experiment with SK-MEL-2 melanoma; more than 100 µM in the experiment with PC-3 prostate; more than 100 µM in the experiment with UACC-257 melanoma; more than 100 µM in the experiment with MDA-MB-231 breast. Further, the TGI is 28.9 µM with T-47D breast, 78 µM with A498 renal, more than 100 µM in the experiment with NCI-H460 lung and more than 100 µM in the experiment on OVCAR-4 ovarian.

For `COc1ccc(/C=C2\CCC(CN(C)C)C2=O)cc1OC` (stereo not given), the TGI with SR leukemia was found to be 9.26 µM; in the experiment with TK-10 renal, 18.7 µM; in the experiment on SK-MEL-2 melanoma, 26.9 µM; in the experiment on PC-3 prostate, 13.9 µM; in the experiment with UACC-257 melanoma it was 17 µM; in the experiment on MDA-MB-231 breast it was 7.71 µM. In addition, the TGI in the experiment on T-47D breast was found to be 44.5 µM; in the experiment with A498 renal, 27.8 µM; with NCI-H460 lung, 26.6 µM; with OVCAR-4 ovarian, 18.4 µM.

For `COc1ccc2c(c1)C(C)Cc1c(Cl)nc(C)nc1N2C` (stereo not given), the GI50 is 2.44 µM in the experiment on SR leukemia; 4.55 µM in the experiment with TK-10 renal; 10.6 µM with SK-MEL-2 melanoma; 2.99 µM in the experiment on PC-3 prostate; 13.1 µM in the experiment on UACC-257 melanoma; 4.34 µM in the experiment with MDA-MB-231 breast. Moreover, the GI50 with T-47D breast is 3.43 µM; in the experiment on A498 renal, 6.79 µM; in the experiment with NCI-H460 lung, 3.09 µM; with OVCAR-4 ovarian, 4.94 µM. For the same compound, the TGI in the experiment on SR leukemia is more than 100 µM; in the experiment on TK-10 renal it was 38.8 µM; with SK-MEL-2 melanoma, 29.5 µM; in the experiment with PC-3 prostate, more than 100 µM; with UACC-257 melanoma it was 37.8 µM; in the experiment on MDA-MB-231 breast it was 34.9 µM. For the same compound, the TGI in the experiment with T-47D breast is more than 100 µM; in the experiment on A498 renal it was 25 µM; in the experiment with NCI-H460 lung it was 15.4 µM; with OVCAR-4 ovarian, more than 100 µM.

Consider `CN(C)CC1CCCCCC(CN(C)C)C1=O` (stereo not given), for which the GI50 in the experiment on SR leukemia was 2.1 µM; in the experiment on TK-10 renal, 0.852 µM; with SK-MEL-2 melanoma, 3.82 µM; in the experiment on PC-3 prostate, 8.71 µM; with UACC-257 melanoma, 1.77 µM; in the experiment with MDA-MB-231 breast it was 8.68 µM. Moreover, the GI50 with T-47D breast is 2.12 µM; in the experiment on A498 renal it was 15.1 µM; in the experiment with NCI-H460 lung it was 18 µM; with OVCAR-4 ovarian, 3.4 µM. Further, the TGI with SR leukemia was found to be 7.14 µM; in the experiment with TK-10 renal, 2.13 µM; with SK-MEL-2 melanoma it was 13.4 µM; in the experiment on PC-3 prostate, 24.2 µM; in the experiment with UACC-257 melanoma it was 4.6 µM; in the experiment on MDA-MB-231 breast, 23.8 µM. The TGI in the experiment with T-47D breast came out at 12.5 µM; with A498 renal, 29.6 µM; with NCI-H460 lung, 36.8 µM; with OVCAR-4 ovarian, 21.7 µM.

For the compound `COc1cc(C2CC(c3ccc(N(C)C)cc3)=NN2C(C)=O)cc(OC)c1OC` (stereo not given), the GI50 in the experiment on SR leukemia is 2.39 µM; in the experiment on TK-10 renal it was 14.3 µM; in the experiment with SK-MEL-2 melanoma it was 12.9 µM; with PC-3 prostate, 1.42 µM; in the experiment on UACC-257 melanoma it was more than 69.5 µM; in the experiment on MDA-MB-231 breast it was 4.74 µM. The GI50 in the experiment on T-47D breast was more than 24.7 µM; in the experiment with A498 renal, 2.18 µM; in the experiment on NCI-H460 lung, 1.41 µM; in the experiment on OVCAR-4 ovarian it was 10.9 µM. Also, the TGI in the experiment on SR leukemia, in the experiment on TK-10 renal, in the experiment on SK-MEL-2 melanoma, with PC-3 prostate, in the experiment on UACC-257 melanoma and in the experiment on MDA-MB-231 breast was more than 100 µM throughout. The TGI was more than 100 µM in the experiment with T-47D breast, more than 47.4 µM in the experiment on A498 renal, more than 100 µM in the experiment with NCI-H460 lung and more than 100 µM with OVCAR-4 ovarian.

The record behind these values is PubChem BioAssay (NCI).
